Like-named read-outs stand apart in the source and are kept apart here.
Experiments:
α₁ receptors = assay: [3H]prazosin binding (α1 receptors), rat cerebral cortex membranes; settings: rat cerebral cortex crude membranes, [3H]prazosin 0.35 nM, 25°C 30 min; read-out: Receptor Binding IC50 (nM) α1
5HT1A receptors = target: T1, 5HT1A receptors (Rattus norvegicus, UniProt P19327); assay: [3H]8-OH-DPAT binding (5HT1A receptors), rat hippocampus membranes; settings: rat hippocampus crude membranes, [3H]8-OH-DPAT 1.0 nM, 25°C 30 min; read-out: Receptor Binding IC50 (nM) 5-HT1a
T1 construct: Rat hippocampi were homogenized; from tissue; host or cells: rat hippocampus membranes
T1 sequence (P19327 1-422): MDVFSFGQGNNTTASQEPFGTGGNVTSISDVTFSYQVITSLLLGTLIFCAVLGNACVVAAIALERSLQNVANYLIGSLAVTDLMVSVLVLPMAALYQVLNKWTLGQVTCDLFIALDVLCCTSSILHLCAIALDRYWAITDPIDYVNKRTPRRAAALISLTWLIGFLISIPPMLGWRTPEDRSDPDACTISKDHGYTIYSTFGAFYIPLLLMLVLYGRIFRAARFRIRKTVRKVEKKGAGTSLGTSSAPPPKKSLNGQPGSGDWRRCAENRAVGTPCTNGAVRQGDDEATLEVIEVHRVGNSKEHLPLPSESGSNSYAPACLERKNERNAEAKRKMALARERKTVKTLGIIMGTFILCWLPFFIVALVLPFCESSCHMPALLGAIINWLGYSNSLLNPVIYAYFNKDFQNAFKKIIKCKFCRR

[1] = Acute toxicity in mice after intraperitoneal and oral administration; settings: mouse, in vivo, female albino Swiss mice, mortality recorded 7 days after administration
Method: Male Sprague Dawley rats [Crl: CD' BR] of 200-300 g b.w., female Albino Swiss mice [Crl: CD-1 (ICR) BR] 20-30 g b.w., and male Beagle dogs (10-12 kg b.w.) were obtained from Charles River, Italy and Nossan (Correzzana, Milan, Italy), respectively. Animals were housed with free access to food and water and maintained on forced light-dark cycle at 22-24°C until the day of experiments.
The acute toxicity of synthesized compounds was evaluated in female albino Swiss mice after intraperitoneal and oral administration. Four logarithmic scaled doses of the compounds were dissolved or suspended in 0.5% Methocel and administered in a volume of 10 ml/kg to groups of 4 mice/dose. Mortality was recorded 7 days after the administration. Data analysis: the LD₅₀ values and their fiducial limits were calculated according to the method of Weil (Biometrics, 8, 249, 1952).

[2] = ip, intraperitoneal, read-out: Acute Toxicity in Mice LD50 (mg/kg) i.p.
[3] = oral, read-out: Acute Toxicity in Mice LD50 (mg/kg) p.o.

SMILES | IC50 (α₁ receptors) [nM] | IC50 (5HT1A receptors) [nM] | LD50 at 168 h [1, 2] [mg/kg] | LD50 at 168 h [1, 3] [mg/kg]
COc1ccccc1N1CCN(CCCN(C(N)=O)c2cccc3c(=O)c(C)c(-c4ccccc4)oc23)CC1 [Example 50, 8-{N-carbamoyl-3-[4-(2-methoxyphenyl)-1-piperazinyl]-propylamino}-3-methyl-4-oxo-2-phenyl-4H-1-benzopyran methanesulphonate hemihydrate] | 39 | 300 | 211 | 299
COc1ccccc1N1CCN(CCCCc2cccc3c(=O)c(C)c(-c4ccccc4)oc23)CC1.CS(=O)(=O)O [Example 53, 8-{4-[4-(2-methoxyphenyl)-1-piperazinyl]-butyl}-3-methyl-4-oxo-2-phenyl-4H-1-benzopyran methanesulphonate] | 7 | 41 | 127 | 1020
Cc1c(-c2ccccc2)oc2c(C(=O)NCCCN3CCC(C(=O)c4ccc(F)cc4)CC3)cccc2c1=O [Example 56, 8-{3-[4-(4-fluorobenzoyl)-1-piperidinyl]-propyl-carbamoyl}-3-methyl-4-oxo-2-phenyl-4H-1-benzopyran] | 25 | 748 | > 500 | 
CS(=O)(=O)O.Cc1c(-c2ccccc2)oc2c(C(=O)NCCCN3CCN(c4ncccn4)CC3)cccc2c1=O [Example 58, 8-{3-[4-(2-pyrimidinyl)-1-piperazinyl]-propylcarbamoyl}-3-methyl-4-oxo-2-phenyl-4H-1-benzopyran methanesulphonate] | ≥ 1000 | 126 | 258 | 508
COc1ccccc1N1CCN(CCCC[S+]([O-])c2cccc3c(=O)c(C)c(-c4ccccc4)oc23)CC1.CS(=O)(=O)O (stereo not drawn) [Example 73, 8-{4-[4-(2-methoxyphenyl)-1-piperazinyl]-butylsulphinyl}-3-methyl-4-oxo-2-phenyl-4H-1-benzopyran methanesulphonate] | 6 | 89 | 202 | 462
COc1ccccc1N1CCN(CCOC(=O)/C=C/c2cccc3c(=O)c(C)c(-c4ccccc4)oc23)CC1 [Example 79, (E)-8-<2-{2-[4-(2-methoxyphenyl)-1-piperazinyl]-ethoxycarbonyl}-ethenyl>-3-methyl-4-oxo-2-phenyl-4H-1-benzopyran methanesulphonate] | 77 | 141 | > 500 | > 2000
COc1ccccc1N1CCN(CCOC(=O)Cc2cccc3c(=O)c(C)c(-c4ccccc4)oc23)CC1.Cl.Cl [Example 66, 8-{2-[4-(2-methoxyphenyl)-1-piperazinyl]-ethoxycarbonylmethyl}-3-methyl-4-oxo-2-phenyl-4H-1-benzopyran dihydrochloride] | 57 | 56 |  | 601
CCOc1ccccc1N1CCN(CC(O)c2cccc3c(=O)c(C)c(-c4ccccc4)oc23)CC1.Cl (stereo not drawn) [Example 19, 8-{1-Hydroxy-2-[4-(2-ethoxyphenyl)-1-piperazinyl]-ethyl}-3-methyl-4-oxo-2-phenyl-4H-1-benzopyran hydrochloride] | 165 | 340 | > 1000 | > 3000
COc1ccccc1N1CCN(CCNS(=O)(=O)c2cccc3c(=O)c(C)c(-c4ccccc4)oc23)CC1.Cl [Example 48, 8-{2-[4-(2-methoxyphenyl)-1-piperazinyl]-ethylsulphamoyl}-3-methyl-4-oxo-2-phenyl-4H-1-benzopyran hydrochloride] | 104 | 5 | 500 | 1910
COc1ccccc1OCCN(C)CCCNC(=O)c1cccc2c(=O)c(C)c(-c3ccccc3)oc12.Cl [Example 62, 8-{3-[N-methyl-2-(2-methoxyphenoxy)-ethylamino]-propylcarbamoyl}-3-methyl-4-oxo-2-phenyl-4H-1-benzopyran hydrochloride] | 252 | 278 | 128 | 344
COc1ccccc1N1CCN(CCO/N=C/c2cccc3c(=O)c(C)c(-c4ccccc4)oc23)CC1 [Example 70, E-8-{2-[4-(2-methoxyphenyl)-1-piperazinyl]-ethoxyimino-methyl}-3-methyl-4-oxo-2-phenyl-4H-1-benzopyran] | 53 | 85 | > 500 | 1870
COc1ccccc1N1CCN(CCOc2cccc3c(=O)c(C)c(-c4ccccc4)oc23)CC1.Cl.O [Example 39, 8-{2-[4-(2-methoxyphenyl)-1-piperazinyl]-ethoxy}-3-methyl-4-oxo-2-phenyl-4H-1-benzopyran hydrochloride hydrate] | 90 | 170 | > 1000 | > 3000
Cc1c(-c2ccccc2)oc2c(C(=O)OCCCN3CCN(c4ccccc4)CC3)cccc2c1=O.Cl.Cl [Example 8, 8-[3-(4-phenyl-1-piperazinyl)-propoxycarbonyl]-3-methyl-4-oxo-2-phenyl-4H-1-benzopyran dihydrochloride] | 66 | 111 | > 500 | 1920
Cc1c(-c2ccccc2)oc2c(C(=O)NCCCN3CCN(c4ccccc4O)CC3)cccc2c1=O [Example 59, 8-{3-[4-(2-hydroxyphenyl)-1-piperazinyl]-propylcarbamoyl}-3-methyl-4-oxo-2-phenyl-4H-1-benzopyran] | 5 | 9 | > 500 | 278
COc1ccccc1N1CCN(CCN(C)S(=O)(=O)c2cccc3c(=O)c(C)c(-c4ccccc4)oc23)CC1.Cl [Example 49, 8-{N-methyl-2-[4-(2-methoxyphenyl)-1-piperazinyl]-ethylsulphamoyl}-3-methyl-4-oxo-2-phenyl-4H-1-benzopyran hydrochloride] | 152 | 9 | 432 | > 2000
COc1ccccc1N1CCN(CCC(=O)c2cccc3c(=O)c(C)c(-c4ccccc4)oc23)CC1.Cl [Example 4, 8-{3-[4-(2-methoxyphenyl)-1-piperazinyl]-1-oxopropyl}-3-methyl-4-oxo-2-phenyl-4H-1-benzopyran hydrochloride] | 550 | 55 | 346 | 1730
COc1ccccc1N1CCN(CCCNC(=O)c2cccc3c2OCCC3=O)CC1.CS(=O)(=O)O [Example 87, 8-{3-[4-(2-methoxyphenyl)-1-piperazinyl]-propylcarbamoyl}-2,3-dihydro-4-oxo-4H-1-benzopyran methanesulphonate] | 119 | 107 | 237 | > 500
COc1ccccc1N1CCN(CCCC(=O)Nc2cccc3c(=O)c(C)c(-c4ccccc4)oc23)CC1 [Example 69, 8-{4-[4-(2-methoxyphenyl)-1-piperazinyl]-butyramido}-3-methyl-4-oxo-2-phenyl-4H-1-benzopyran methanesulphonate hemihydrate] | 16 | 87 | 344 | 
COc1ccccc1N1CCN(CCC(=O)Nc2cccc3c(=O)c(C)c(-c4ccccc4)oc23)CC1.Cl [Example 37, 8-{3-[4-(2-methoxyphenyl)-1-piperazinyl]-propionamido}-3-methyl-4-oxo-2-phenyl-4H-1-benzopyran hydrochloride] | 32 | 77 | > 500 | > 2000
COc1ccccc1N1CCN(CCNC(=O)/C=C/c2cccc3c(=O)c(C)c(-c4ccccc4)oc23)CC1 [Example 72, E-8-<2-{2-[4-(2-methoxyphenyl)-1-piperazinyl]-ethylcarbamoyl}-ethenyl>-3-methyl-4-oxo-2-phenyl-4H-1-benzopyran methanesulphonate 1.2 H₂0] | 145 | 111 | 479 | > 2000
CCOc1ccccc1OCCNCCOCc1cccc2c(=O)c(C)c(-c3ccccc3)oc12.Cl [Example 28, 8-{2-[2-(2-ethoxyphenoxy)-ethylamino]-ethoxymethyl}-3-methyl-4-oxo-2-phenyl-4H-1-benzopyran hydrochloride] | 120 | 96 | 203 | 1130
